Data set [1] relates to rotenone-inhibited Complex I. As to the kind of experiment: Complex I-bypass assay (high-resolution respirometry, O2 consumption). The format is cell-based, human. The method, then:
All high-resolution respirometry experiments were conducted using the Oroboros O2k-Fluorespirometer (Oroboros, Innsbruck, Austria). The Oroboros O2k-Fluorespirometer was calibrated daily using the air calibration protocol on DatLab 7.4 (Oroboros, Innsbruck, Austria). Prior to each experiment requiring the fluorescence module, the AmpR calibration protocol from DatLab 7.4 was used to calibrate the fluorescence signal. Initial data analysis, including setting of marks, was performed using DatLab 7.4.
Complex I-bypass activity was assessed using HRR to measure O2 consumption. […] Values were exported and analyzed using GraphPad Prism 9. […]
Statistical analysis was performed using GraphPad Prism 9. […] RET Assay data were analyzed by 2-way ANOVA using a p-value of 0.05.
Using this assay, the ability of Compounds 1 to 4 and Vatiquinone to bypass rotenone-inhibited Complex I was determined. […] The ability of Compounds 1 to 4 and Vatiquinone to “bypass” Complex I and restore OXPHOS is measured by an increase in oxygen consumption rate following addition of the compound to the chamber.
In executing this assay, in each instance, fibroblasts are added to each chamber of the Oroboros Oxygraph-2K (the “O2k”). […] The addition of rotenone is expected to cause a marked reduction of OXPHOS as measured by a decreased rate of oxygen consumption. […]

For data set [2], the system named is Leigh syndrome (GM03672) fibroblasts. Description: RSL3 cytoprotection assay, Leigh fibroblasts. The format is cell-based, human. Particulars: FIG. 9; for anti-ferroptosis properties compared among test articles: RSL3, 4 hours. The method, then:
(§1) Patient fibroblasts were acquired from Coriell Institute for Medical Research (Camden, NJ, USA). GM03672 is an untransformed fibroblast cell line from a Leigh syndrome patient carrying an unknown mutation. GM08402 is an untransformed fibroblast from an apparently healthy individual. Cells were cultured at 37° C. at 5% CO2 in Eagle's Minimum Essential Medium (MEM, Corning), which was supplemented with Earle's salts and non-essential amino acids, 15% qualified fetal bovine serum, and 1% penicillin/streptomycin ([…]) to yield “Complete MEM.”
(§2) To initiate the RSL3 cytoprotection experiment, Healthy (GM08402) and Leigh syndrome (GM03672) fibroblasts were resuspended in Complete MEM. Cells were seeded at 10,000 cells per well in a clear, tissue cultured-treated, 96-well plate and incubated at 37° C. overnight. Following the incubation, supernatant was manually aspirated, taking care not to disrupt cells. […]. Luminescence units were quantified by GEN5 software on a BioTek SYNERGY neo2 plate reader (LUM filter).
(§3) RSL3 is an inhibitor of the enzyme glutathione peroxidase 4 (GPX4), which decreases lipid peroxides. RSL3 inhibition of GPX4 induces ferroptosis through iron-dependent accumulation of lipid ROS. In this assay, Healthy or Leigh fibroblasts were treated for 4 hours with RSL3 to induce ferroptosis or left untreated. Endogenous ATP levels were measured as an indicator of cellular viability using a commercially available kit (CellTiter-Glo® 2.0 Cell Viability Assay (Promega)).
(§4) […]. […] Briefly, ferroptosis was induced with 1 μM RSL3 in healthy fibroblast cells and 375 nM RSL3 in fibroblasts from a patient with Leigh syndrome.
(§5) A preliminary experiment was performed to determine the effect of RSL3 injury on the fibroblasts of a healthy individual (cell line: GM08402) and the fibroblasts of a patient diagnosed with Leigh syndrome (cell line: GM03672).

For data set [3], the system named is Healthy (GM08402) fibroblasts. As to the kind of experiment: RSL3 cytoprotection assay, healthy fibroblasts. The following applies: 1 μM RSL3, 4 hours, FIG. 8. The format is cell-based, human. The method, then:
as §1, §2, §3, §4, §5

In data set [4] the test system is 15-lipoxygenase (15-LO). As to the kind of experiment: 15(S)-HETE ELISA following RSL3 treatment, Leigh fibroblasts. In kind it is cell-based, human. Particulars: 700 nM RSL3, 1 μM compound, FIG. 11. As to the method: (§6) Samples for the 15(S)-HETE ELISA were generated by the RSL3 cytoprotection assay described above. Healthy or Leigh fibroblasts were resuspended in assay medium, seeded at 200,000 cells per well in a clear, tissue culture-treated, 24-well plate. Cells were incubated at 37° C. for 24 hours. Supernatant was aspirated from each well following the incubation.
(§7) Fibroblasts from both a healthy individual and a patient diagnosed with Leigh syndrome were examined (but not all compounds were examined in each cell type). Activation of ferroptosis has been implicated as a driver of epilepsy, which is commonly associated with Leigh syndrome. […] Kahn-Kirby et al. PLOS One. […] As a key regulator of ferroptosis, 15-LO serves as a rational therapeutic target in Leigh syndrome.

The subject of data set [5] is Leigh (GM03672) fibroblasts. Description: Erastin cytoprotection assay, Leigh fibroblasts. The following applies: 24 hours; for protective effect compared among test articles: 2 μM erastin, FIG. 13. The format is cell-based, human. The method, then: (§8) Briefly, Healthy (GM08402) or Leigh (GM03672) fibroblasts were resuspended in assay medium, seeded at 10,000 cells per well in a clear, tissue cultured-treated, 96-well plate, and incubated at 37° C. overnight. Following the incubation, supernatant was manually aspirated from wells, taking care not to disrupt cells. Fibroblasts were co-treated in a final volume of 100 μL with 2 μM erastin (Millipore Corp., Cat #), 250 μM ferric ammonium citrate (FAC), 50 µM ascorbic acid (AA), and a titration of one of each of Compounds 1 to 4 or Vatiquinone ranging from 10 to 1000 nM. Following another 24-hour incubation at 37° C., cell viability was measured using the CellTiter-Glo Luminescent Cell Viability Kit (ProMega) per Manufacturer's instructions. Luminescence units were quantified by GEN5 software on a BioTek SYNERGY neo2 plate reader (LUM filter).
(§9) Briefly, erastin, like RSL3, is known to induce ferroptosis. […] Erastin was incubated with cell fibroblasts for 24 hours to induce ferroptosis. Cells were co-treated with each of Compounds 1 to 4, or Vatiquinone as the test articles. Test articles were administered at a range of concentrations to derive a curve. Cell viability was determined using a commercially available kit that measures ATP production. […] An increase in cell viability as determined by the assay is considered to be protective against ferroptosis.

In data set [6] the test system is Healthy (GM08402) fibroblasts. Description: Erastin cytoprotection assay, healthy fibroblasts. In kind it is cell-based, human. Particulars: 24 hours; for protective effect compared among test articles: 2 μM erastin, FIG. 12. As to the method: as §8, §9
The test system of data set [7] is 15-lipoxygenase (15-LO). Description: 15(S)-HETE ELISA following RSL3 treatment, healthy fibroblasts. The format is cell-based, human. The following applies: 700 nM RSL3, 1 μM compound, FIG. 10. The method, then:
as §6, §7

Data set [8] can be described thus: Pharmacokinetics of Compound 2 after single intravenous, subcutaneous or oral administration. In kind it is in vivo. Particulars: rat, 1 mg/kg IV, 10 mg/kg SC, 10 mg/kg PO. As to the method: • Animals: Rat/Sprague Dawley/Male/Naive 225-250 grams were received from an approved vendor. • Animals were fasted overnight prior to dose administration. Food was returned following the 2 hour sample collection. • Body weights were recorded prior to dose administration. The volume of each dose delivered (ml/kg) was based on each individual animal's body weight. • This was a single dose, serial blood collection study with tissues collected for possible future analysis. • Doses were administered in accordance with test facility standard operating procedures. […].
b) Sample collection—Post Dosing: • Blood samples were collected via jugular vein catheter (JVC) and transferred to tubes with appropriate anticoagulant. The tubes were stored on wet ice until processed to plasma by centrifugation (3500 rpm at 5° C. for 10 minutes) within 20 minutes of collection. Sample aliquots of 100 μL were transferred into individual uniquely labeled matrix tubes containing 10 μL of 5% (v/v) formic acid aqueous solution and stored at nominal −80° C. until analyzed by LC/MS/MS. • Immediately following final serial blood collection (24 hours, JVC), animals were sacrificed and perfused with cold PBS. […]

The test system of data set [9] is 15-lipoxygenase (15-LO). Description: 15(S)-HETE ELISA following erastin treatment, healthy fibroblasts. The format is cell-based, human. The following applies: erastin + FAC + AA, FIG. 14. As to the method:
(§10) Samples for the 15(S)-HETE ELISA were generated by the Erastin Assay described above. Healthy or Leigh fibroblasts were resuspended in assay medium, seeded at 200,000 cells/well in a clear, tissue culture-treated, 24-well plate, and incubated at 37° C. for 24 hours. Supernatant was aspirated from each well.
(§11) Ferroptosis was induced using erastin at 2 μM concentration. 15(S)-HETE, which is a metabolite of arachidonic acid and generated by activity of 15-LO, was measured using a commercially available ELISA kit. Data were normalized to the “No treatment” group, which represented fibroblasts that were not injured with erastin.

For data set [10], the system named is 15-lipoxygenase (15-LO). Description: 15(S)-HETE ELISA following erastin treatment, Leigh fibroblasts. In kind it is cell-based, human. Particulars: erastin + FAC + AA, FIG. 15. As to the method:
as §10, §11

The conditions of data set [11]: pontocerebellar hypoplasia type 6, Kahn-Kirby et al.; cited from earlier work.
The conditions of data set [12]: tested in the clinic; cited from earlier work.
Where [13] appears, read: 2 μM erastin + FAC + AA, compound 10-1000 nM.

Results on 3 compounds are retold here after US20250144049A1, “METHODS, COMPOSITIONS, AND USES RELATED TO THE TREATMENT AND PREVENTION OF LEIGH SYNDROME” (Stealth BioTherapeutics Inc., priority 2023, published 2025).

On to `COC1=C(OC)C(=O)C(CCCCCCCCCC(F)(F)F)=C(C)C1=O` [Compound 1], for which, in data set [1] (titrated into rotenone-inhibited Leigh fibroblasts, n=6), the “oxygen consumption rate after rotenone inhibition” value is “restored oxygen consumption rate in a dose-dependent manner”. For the same compound, the “anti-ferroptosis properties compared among test articles” value in data set [2] and in [3] was “roughly equivalent” in each case. Further, in the data set on 15-lipoxygenase (15-LO) [4], the “15-LO inhibition compared among test articles” value is “superior to Compounds 2, 3 and 4”. In addition, the “protective effect compared among test articles” value in [5] and in data set [6] was “about equally protective” each time.
For `CC1=C(C)C(=O)C(CC[C@@](C)(O)CC/C=C(\C)CCC=C(F)F)=C(C)C1=O` [Compound 2], the “inhibition of 15-lipoxygenase (15(S)-HETE in supernatant)” value with 15-lipoxygenase (15-LO) [7] (24 hours) is given as “inhibited 15-lipoxygenase”. Further, the “15-lipoxygenase inhibition compared among test articles” value with 15-lipoxygenase (15-LO) [7] is given as “roughly equivalent protective effect”. Further, the tolerability result in data set [8] is reported as “well tolerated”. Also, the “delivery by mode of administration” value in [8] (preliminary) is recorded as “effectively administered”. The figures for the “15-LO inhibition compared among test articles” value in the data set on 15-lipoxygenase (15-LO) [9], in the data set with 15-lipoxygenase (15-LO) [4] and in the data set with 15-lipoxygenase (15-LO) [10] were “slightly less effective”, “roughly equivalent protective effect” and “slightly less effective”, respectively. For the same compound, the “anti-ferroptosis properties compared among test articles” value in [2] was “superior to Compounds 1, 4 and Vatiquinone”; in data set [3] it was “superior to Compounds 1, 4 and Vatiquinone”. Further, the “protective effect compared among test articles” value in [5] and in [6] was “superior in their protective effect” in each case.
In the case of `CC(C)=CCC/C(C)=C/CC/C(C)=C/CC[C@@](C)(O)CCC1=C(C)C(=O)C(C)=C(C)C1=O` [Vatiquinone, reference compound], the “seizure frequency and morbidity” value in [11] is “decrease seizure frequency and morbidity”. Further, the “Complex I by-pass activity” value in data set [1] (concentrations from 125 nM to 8 μM) is “inactive”. Moreover, the “protective effect against RSL3 induced ferroptosis (cell viability, ATP)” value in data set [2] (375 nM RSL3, 4 hours, compound 10-1000 nM) is on record as “protective effect”; in data set [3] (compound 10-1000 nM), “protective effect”. In addition, the “anti-ferroptosis properties compared among test articles” value in data set [2] and in [3] was “roughly equivalent” in each case. In addition, the “protective effect against erastin induced ferroptosis (cell viability, ATP)” value in data set [5] (setting [13]) and in [6] (setting [13]) was “protective effect” each time. Further, the “protective effect compared among test articles” value in data set [5] is “superior in its protective effect as compared with Compounds 1 and 4”; in data set [6] it was “about equally protective”. In addition, the “clinical results in Leigh syndrome” value in data set [12] is “disappointing”.
